The values below come from patent publication US12459921B2, “Isoindoline compound, preparation method, pharmaceutical composition and use thereof” (SHANGHAI INSTITUTE OF MATERIA MEDICA, CHINESE ACADEMY OF …, priority 2018, dated 2025).

One assay relates to MV-4-11 cells. The assay can be described thus: Inhibitory effect on the proliferation of MV-4-11 cells, MTS cell viability test. The format is cell-based. The note with it: acute leukemia MV-4-11 cells, 7 days incubation, read-out: Tumor cell inhibitory activity. The method, then:
Method of tumor cell proliferation inhibition test: the inventors tested all the example compounds on hematologic tumor cells, multiple myeloma MMTs cell line and acute leukemia cell MV-4-11 cell line of some examples. The activity test method and results are as follows.
2. The Inhibitory Effect of Compounds on the Proliferation of MV-4-11 Cells, MTS Cell Viability Test: 1). Experimental Method:
MV-4-11 cells were cultured and collected with IMDM and 10% fetal bovine serum. The cell concentration was diluted according to 7 days, and 180 ul of cell suspension was added to each well of a 96-well cell plate to 2000 cells. 20 ul of DMSO with a final concentration of 0.2% was added to the control wells. The compound was diluted 5-fold from the 10 mM stock solution, and 20 ul was also added to the compound cell wells (the final concentration of DMSO was 0.2%). The cells were placed in a 37° C., 5% CO2 incubator and incubated for 7 days. After the reaction solution was prepared according to the MTS kit (Promega, G5430), 20 μL was added to each well, incubated in a 37° C., 5% CO2 incubator for 3-4 h. The 490 nm absorbance value was read with a microtiter plate, and the 690 nm absorbance value was used as the background value. OD490-OD690 was used as the final initial data. The formula for calculating the inhibition rate of the compound was: inhibition rate=(ODDMSO-ODcompound)/(ODDMSO-Oblank)×100%. The compound's proliferation inhibition IC50 was fitted by Graph Pad Prism 5.0. The experiment was repeated three times, and the average and standard deviation was calculated according to three parallel experiments each time.
(In general: Tetrazolium assays rely on reduction of a dye to a coloured formazan, in cell work by metabolically active cells.)

Another assay deals with MM.1S cells. The assay can be described thus: Inhibitory effect on the proliferation of MM.1S, MTS cell viability test. The format is cell-based. The note with it: multiple myeloma MM.1S cells, 7 days incubation, read-out: Tumor cell inhibitory activity. The procedure, abridged: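 MM.1S cells (20,000/well, RPMI 1640 with 10% FBS) exposed to 5-fold compound dilutions at 0.2% DMSO for 7 days at 37° C, 5% CO2. MTS added for 3-4 h; OD490-OD690 gave inhibition versus DMSO, IC50 fitted, mean of three experiments.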

Read-outs that look alike come from different tables or passages of the source. A value given as a limit tells only on which side of the number the result lay.

Turning to `O=C1CCC(N2Cc3c(CCCCCN4CCc5ccc(Br)cc54)cccc3C2=O)C(=O)N1` (stereo not drawn) [Example 114, 3-(4-(5-(5-bromoindoline-1-)pentyl)-1-oxoisoindoline-2-)piperidine-2,6-dione], the IC50 in the assay with MV-4-11 cells (Homo sapiens, MV4-11, 168 h) is 220 nM; in the assay with MM.1S cells (Homo sapiens, MM1.S, 168 h) it was 100 to 1000 nM.
Consider `O=C1CCC(N2Cc3c(CCCCCN4CCC5(CCc6ccccc65)CC4)cccc3C2=O)C(=O)N1` (stereo not drawn) [Example 143, 3-(4-(5-(2,3-dihydrospiro[indene-1,4′-piperidine]-1′-)pentyl)-1-oxoisoindoline-2-)piperidine-2,6-dione], for which the IC50 was 610 nM in the assay on MV-4-11 cells (Homo sapiens, MV4-11, 168 h) and less than 100 nM in the assay with MM.1S cells (Homo sapiens, MM1.S, 168 h).
The matching figures for `Cc1ccc(NC(=O)CCCOc2cccc3c2CN(C2CCC(=O)NC2=O)C3=O)cc1Cl` (stereo not drawn) [Example 158, N-(3-chloro-4-methylphenyl)-4-((2-(2,6-dioxopiperidine-3-)-1-oxoisoindoline-4-)oxy)butanamide]: 14 nM and less than 100 nM.
For `CC(=O)N[C@@H](CCCc1cccc2c1CN(C1CCC(=O)NC1=O)C2=O)C(=O)Nc1ccccc1` (stereo partly drawn) [Example 164, (2S)-2-acetylamino-5-(2-(2,6-dioxopiperidine-3-)-1-oxoisoindoline-4-)-N-phenylpentanamide], in that order: 250 nM and less than 100 nM.
For the compound `CC(=O)N[C@@H](CCCc1cccc2c1CN(C1CCC(=O)NC1=O)C2=O)C(=O)NCc1ccccc1` (stereo partly drawn) [Example 166, (2S)-2-acetylamino-N-benzyl-5-(2-(2,6-dioxopiperidine-3-)-1-oxoisoindoline-4-)pentanamide], the IC50 with MV-4-11 cells (Homo sapiens, MV4-11, 168 h) is 200 nM; with MM.1S cells (Homo sapiens, MM1.S, 168 h) it was 100 to 1000 nM.
In the case of `CC(C)C(=O)N[C@@H](CCCc1cccc2c1CN(C1CCC(=O)NC1=O)C2=O)C(=O)NCc1ccccc1` (stereo partly drawn) [Example 167, (2S)-N-benzyl-5-(2-(2,6-dioxopiperidine-3-)-1-oxoisoindoline-4-)-2-iso butyramidopentaneamide], the IC50 was 35 nM in the assay on MV-4-11 cells (Homo sapiens, MV4-11, 168 h) and less than 100 nM in the assay with MM.1S cells (Homo sapiens, MM1.S, 168 h).
As to `O=C1CCC(N2Cc3c(CCC[C@H](NC(=O)C4CCC4)C(=O)NCc4ccccc4)cccc3C2=O)C(=O)N1` (stereo partly drawn) [Example 173, N-((2S)-1-(benzylamine)-5-(2-(2,6-dioxopiperidine-3-)-1-oxoisoindoline-4-)-1-oxopentyl-2-)cyclobutylcarboxamide], the IC50 in the assay on MV-4-11 cells (Homo sapiens, MV4-11, 168 h) was 29 nM; in the assay with MM.1S cells (Homo sapiens, MM1.S, 168 h), less than 100 nM.
For the compound `CC(=O)N[C@@H](CCCc1cccc2c1CN(C1CCC(=O)NC1=O)C2=O)C(=O)NCc1cccc(Br)c1` (stereo partly drawn) [Example 182, (2S)-2-acetylamino-N-(3-bromobenzyl)-5-(2-(2,6-dioxopiperidine-3-)-1-oxoisoindoline-4-)pentanamide], the IC50 in the assay on MV-4-11 cells (Homo sapiens, MV4-11, 168 h) is 17 nM; in the assay with MM.1S cells (Homo sapiens, MM1.S, 168 h) it was less than 100 nM.
For `O=C1CCC(N2Cc3c(CCCCN4CCN(c5cccc6ccsc56)CC4)cccc3C2=O)C(=O)N1` (stereo not drawn) [Example 221, 3-(4-(4-(4-(benzothiophene-7-yl)piperazin-1-yl)butyl)-1-oxoisoindoline-2-yl)piperidine-2,6-dione], in that order: 600 nM and less than 100 nM.
Consider `O=C1CCC(N2Cc3c(CCCCCN4CCC(c5noc6cc(F)ccc56)CC4)cccc3C2=O)C(=O)N1` (stereo not drawn) [Example 226, 3-(4-(5-(4-(6-fluorobenzisoxazole-3-yl)piperidin-1-yl)pentyl)-1-oxoisoindoline-2-yl)piperidine-2,6-], for which the IC50 in the assay with MV-4-11 cells is 510 nM; in the assay with MM.1S cells, 1000 to 20000 nM.
For the compound `O=C1CCC(N2Cc3c(CCCCCN4CCN(c5c(Cl)cccc5Cl)CC4)cccc3C2=O)C(=O)N1` (stereo not drawn) [Example 235, 3-(4-(5-(4-(2,6-dichlorophenyl)piperazine-1-yl)pentyl)-1-oxoisoindoline-2-yl)piperidine-2,6-dione], the IC50 with MV-4-11 cells (Homo sapiens, MV4-11, 168 h) is 480 nM; in the assay on MM.1S cells (Homo sapiens, MM1.S, 168 h), 100 to 1000 nM.
For `N#CC1(c2cc(Cl)ccc2Cl)CCN(CCCCCc2cccc3c2CN(C2CCC(=O)NC2=O)C3=O)CC1` (stereo not drawn) [Example 248, 4-(2,5-dichlorophenyl)-1-(5-(2-(2,6-dioxopiperidine-3-yl)-1-oxoisoindoline-4-yl)pentyl)piperidine-4-carbonitrile], in that order: 660 nM and 1000 to 20000 nM.
The matching figures for `O=C1CCC(N2Cc3c(CCCCCN4CCC5(CC4)C(=O)Nc4cc(Cl)ccc45)cccc3C2=O)C(=O)N1` (stereo not drawn) [Example 275, 3-(4-(5-(6-chloro-2-oxospiro[dihydroindole-3,4-piperidin]-1-yl)pentyl)-1-oxoisoindoline-2-yl)piperidine-2,6-dione]: 630 nM and 100 to 1000 nM.
For `Nc1cccc2c1CN(C1CCC(=O)NC1=O)C2=O` (stereo not drawn) [Lenalidomide, lenalidomide, reference compound], in that order: more than 20000 nM and 100 to 1000 nM.
On to `Nc1cccc2c1C(=O)N(C1CCC(=O)NC1=O)C2=O` (stereo not drawn) [Pomalidomide, pomalidomide, reference compound], for which the IC50 with MV-4-11 cells (Homo sapiens, MV4-11, 168 h) is more than 20000 nM; with MM.1S cells (Homo sapiens, MM1.S, 168 h), less than 100 nM.
